Reference: patent US8481732B2 (Incyte Corporation, priority 2009, dated 2013)

Target: T1, histamine H4 receptor (Homo sapiens, UniProt Q9H3N8)
T1 construct: expressed in transfected cells; host or cells: HEK293SFM cells (membrane preparation)
Assay: H4 Membrane Binding Assay (3H-Histamine displacement)
Settings: membranes of recombinant HEK293SFM cells, 10 nM 3H-Histamine, 1.5 hr at room temperature
Procedure: Recombinant HEK293SFM cells expressing human H1, H2, H3, H4 or mouse H4 were harvested (Packard Filtermate Harvester) in ice-cold Tris-HCl, (50 mM, pH 7.5, Sigma) with protease inhibitors (Roche) and homogenized with a Polytron homogenizer. The homogenate was centrifuged for 5 minutes at 1000 g to remove nuclei and unbroken cells. The supernatant was centrifuged at 50000 g for 30 minutes, and the resulting pellet was re-suspended in ice-cold Tris-HCl (50 mM, pH 7.5). […] Nonspecific binding was determined by inclusion of 1000× unlabeled ligands. The bound radioactivity was separated by filtration through polyethyleneimine-treated GF/B filters (Perkin Elmer). The filters were washed eight times with ice-cold Tris-HCl (50 mM, pH 7.5), and radioactivity retained on the filters was measured by liquid scintillation counting. The binding data were evaluated with Prism.

T1 sequence (Q9H3N8 whole entry): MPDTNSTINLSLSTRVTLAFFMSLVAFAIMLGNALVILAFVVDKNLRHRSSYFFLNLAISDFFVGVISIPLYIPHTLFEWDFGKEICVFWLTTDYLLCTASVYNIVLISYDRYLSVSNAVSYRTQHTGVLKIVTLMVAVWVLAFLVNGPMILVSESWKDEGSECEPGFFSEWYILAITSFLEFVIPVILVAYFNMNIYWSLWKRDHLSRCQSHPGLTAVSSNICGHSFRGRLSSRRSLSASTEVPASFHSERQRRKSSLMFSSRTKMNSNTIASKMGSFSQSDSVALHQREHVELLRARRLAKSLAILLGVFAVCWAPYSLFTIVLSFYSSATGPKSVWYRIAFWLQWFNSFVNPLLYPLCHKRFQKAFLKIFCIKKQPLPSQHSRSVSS

| Structure (SMILES) | IC50 [nM] |
| --- | --- |
| CN1CCN(c2cc(-c3ccc4c(c3)CN(C(=O)N[C@H]3C[C@@H]3c3ccccc3)CC4)nc(N)n2)CC1 (relative stereo) [Example 49, 7-[2-Amino-6-(4-methylpiperazin-1-yl)pyrimidin-4-yl]-N-(trans-2-phenylcyclopropyl)-3,4-dihydroisoquinoline-2(1H)-carboxamide] | 47 |
| CCOC(=O)[C@@H]1CCCC[C@@H]1NC(=O)N1CCc2ccc(-c3cc(N4CCN(C)CC4)nc(N)n3)cc2C1 (relative stereo) [Example 53, Ethyl cis-2-({[7-[2-amino-6-(4-methylpiperazin-1-yl)pyrimidin-4-yl]-3,4-dihydroisoquinolin-2(1H)-yl]carbonyl}amino)cyclohexanecarboxylate] | 107 |
| CO[C@H]1CCCC[C@H]1NC(=O)N1CCc2ccc(-c3cc(N4CCN(C)CC4)nc(N)n3)cc2C1 (relative stereo) [Example 55, 7-[2-Amino-6-(4-methylpiperazin-1-yl)pyrimidin-4-yl]-N-(cis-2-methoxycyclohexyl)-3,4-dihydroisoquinoline-2(1H)-carboxamide] | 120 |
| CCO[C@H]1CCCC[C@H]1NC(=O)N1CCc2ccc(-c3cc(N4CCN(C)CC4)nc(N)n3)cc2C1 (relative stereo) [Example 85, 7-[2-Amino-6-(4-methylpiperazin-1-yl)pyrimidin-4-yl]-N-[(cis)-2-ethoxycyclohexyl]-3,4-dihydroisoquinoline-2(1H)-carboxamide] | 57 |
| CN1CCN(c2cc(-c3ccc4c(c3)CN(C(=O)N[C@@H]3CCCC[C@@H]3OCC3CC3)CC4)nc(N)n2)CC1 (relative stereo) [Example 86] | 49 |
| CN1CCN(c2nc(N)nc3cc(C(=O)NC(Cc4ccc5c(c4)OC(F)(F)O5)C(=O)N(C)C)ccc23)CC1 (single isomer, unassigned) [Example 145A] | 519 |
| CN1CCN(c2nc(N)nc3cc(C(=O)NC(Cc4ccc5c(c4)OC(F)(F)O5)C(=O)N(C)C)ccc23)CC1 (single isomer, unassigned) [Example 145B, 2-Amino-N-(3-(2,2-difluorobenzo[d][1,3]dioxol-5-yl)-1-(dimethylamino)-1-oxopropan-2-yl)-4-(4-methylpiperazin-1-yl)quinazoline-7-carboxamide] | 26 |
| CN1CCN(c2cc(-c3ccc4c(c3)CN(C(=O)NC(Cc3ccccc3)C(=O)N(C)C)CC4)nc(N)n2)CC1 (stereo in doubt) [Example 60, 7-[2-Amino-6-(4-methylpiperazin-1-yl)pyrimidin-4-yl]-N-[(1R)-1-benzyl-2-(dimethylamino)-2-oxoethyl]-3,4-dihydroisoquinoline-2(1H)-carboxamide] | 497 |
| CN1CCN(c2cc(-c3ccc4c(c3)CNCC4)nc(N)n2)CC1 [Example 1, 4-(4-Methylpiperazin-1-yl)-6-(1,2,3,4-tetrahydroisoquinolin-7-yl)pyrimidin-2-amine] | 198 |
| CN1CCN(c2cc(-c3ccc4c(c3)CN(C(=O)c3ccc(Cl)cc3)CC4)nc(N)n2)CC1 [Example 2, 4-[2-(4-Chlorobenzoyl)-1,2,3,4-tetrahydroisoquinolin-7-yl]-6-(4-methylpiperazin-1-yl)pyrimidin-2-amine] | 172 |
| CN1CCN(c2cc(-c3ccc4c(c3)CN(C(=O)C3CCC3)CC4)nc(N)n2)CC1 [Example 3, 4-[2-(Cyclobutylcarbonyl)-1,2,3,4-tetrahydroisoquinolin-7-yl]-6-(4-methylpiperazin-1-yl)pyrimidin-2-amine] | 170 |
| CN1CCN(c2cc(-c3ccc4c(c3)CN(S(=O)(=O)c3ccccc3)CC4)nc(N)n2)CC1 [Example 4, 4-(4-Methylpiperazin-1-yl)-6-[2-(phenylsulfonyl)-1,2,3,4-tetrahydroisoquinolin-7-yl]pyrimidin-2-amine] | 267 |
| CN1CCN(c2cc(-c3ccc4c(c3)CN(C(=O)NC3CCCC3)CC4)nc(N)n2)CC1 [Example 5, 7-[2-Amino-6-(4-methylpiperazin-1-yl)pyrimidin-4-yl]-N-cyclopentyl-3,4-dihydroisoquinoline-2(1H)-carboxamide] | 20.8 |
| CN1CCN(c2cc(-c3ccc4c(c3)CN(C(=O)Cc3ccccc3)CC4)nc(N)n2)CC1 [Example 6, 4-(4-Methylpiperazin-1-yl)-6-[2-(phenylacetyl)-1,2,3,4-tetrahydroisoquinolin-7-yl]pyrimidin-2-amine] | 37.8 |
| CN1CCN(c2cc(-c3ccc4c(c3)CN(C(=O)OC3CCCC3)CC4)nc(N)n2)CC1 [Example 7, Cyclopentyl 7-[2-amino-6-(4-methylpiperazin-1-yl)pyrimidin-4-yl]-3,4-dihydroisoquinoline-2(1H)-carboxylate] | 43.3 |
| CN1CCN(c2cc(-c3ccc4c(c3)CN(C(=O)Nc3ccc(Cl)cc3)CC4)nc(N)n2)CC1 [Example 8, 7-[2-Amino-6-(4-methylpiperazin-1-yl)pyrimidin-4-yl]-N-(4-chlorophenyl)-3,4-dihydroisoquinoline-2(1H)-carboxamide] | 13.2 |

| Structure (SMILES) | IC50 [nM] |
| --- | --- |
| CN1CCN(c2cc(-c3ccc4c(c3)CN(C(=O)N3CCCC3)CC4)nc(N)n2)CC1 [Example 9, 4-(4-Methylpiperazin-1-yl)-6-[2-(pyrrolidin-1-ylcarbonyl)-1,2,3,4-tetrahydroisoquinolin-7-yl]pyrimidin-2-amine] | 301 |
| CC(C)COC(=O)N1CCc2ccc(-c3cc(N4CCN(C)CC4)nc(N)n3)cc2C1 [Example 10, Isobutyl 7-[2-amino-6-(4-methylpiperazin-1-yl)pyrimidin-4-yl]-3,4-dihydroisoquinoline-2(1H)-carboxylate] | 53.4 |
| CC(C)OC(=O)N1CCc2ccc(-c3cc(N4CCN(C)CC4)nc(N)n3)cc2C1 [Example 11, Isopropyl 7-[2-amino-6-(4-methylpiperazin-1-yl)pyrimidin-4-yl]-3,4-dihydroisoquinoline-2(1H)-carboxylate] | 43 |
| CN1CCN(c2cc(-c3ccc4c(c3)CN(C(=O)Nc3ccccc3)CC4)nc(N)n2)CC1 [Example 12, 7-[2-Amino-6-(4-methylpiperazin-1-yl)pyrimidin-4-yl]-N-phenyl-3,4-dihydroisoquinoline-2(1H)-carboxamide] | 23.4 |
| CC(C)NC(=O)N1CCc2ccc(-c3cc(N4CCN(C)CC4)nc(N)n3)cc2C1 [Example 13, 7-[2-Amino-6-(4-methylpiperazin-1-yl)pyrimidin-4-yl]-N-isopropyl-3,4-dihydroisoquinoline-2(1H)-carboxamide] | 57.2 |
| CN1CCN(c2cc(-c3ccc4c(c3)CN(c3ccc(C#N)cc3)CC4)nc(N)n2)CC1 [Example 14, 4-{7-[2-Amino-6-(4-methylpiperazin-1-yl)pyrimidin-4-yl]-3,4-dihydroisoquinolin-2(1H)-yl}benzonitrile] | 23.1 |
| CN1CCN(c2cc(-c3ccc4c(c3)CN(c3ccc(C#N)c(F)c3)CC4)nc(N)n2)CC1 [Example 15, 4-{7-[2-Amino-6-(4-methylpiperazin-1-yl)pyrimidin-4-yl]-3,4-dihydroisoquinolin-2(1H)-yl}-2-fluorobenzonitrile] | 39 |
| CN1CCN(c2cc(-c3ccc4c(c3)CN(c3ccc(C#N)cn3)CC4)nc(N)n2)CC1 [Example 16, 6-{7-[2-Amino-6-(4-methylpiperazin-1-yl)pyrimidin-4-yl]-3,4-dihydroisoquinolin-2(1H)-yl}nicotinonitrile] | 48 |
| CNC(=O)c1ccc(N2CCc3ccc(-c4cc(N5CCN(C)CC5)nc(N)n4)cc3C2)cn1 [Example 17, 5-{7-[2-Amino-6-(4-methylpiperazin-1-yl)pyrimidin-4-yl]-3,4-dihydroisoquinolin-2(1H)-yl}-N-methylpyridine-2-carboxamide] | 199 |
| CN1CCN(c2cc(-c3ccc4c(c3)CN(c3ccc(-c5ccc(C#N)cc5)cn3)CC4)nc(N)n2)CC1 [Example 18, 4-{6-[7-[2-Amino-6-(4-methylpiperazin-1-yl)pyrimidin-4-yl]-3,4-dihydroisoquinolin-2(1H)-yl]pyridin-3-yl}benzonitrile] | 34 |
| CNC(=O)c1ccc(-c2ccc(N3CCc4ccc(-c5cc(N6CCN(C)CC6)nc(N)n5)cc4C3)nc2)cc1 [Example 19, 4-{6-[7-[2-Amino-6-(4-methylpiperazin-1-yl)pyrimidin-4-yl]-3,4-dihydroisoquinolin-2(1H)-yl]pyridin-3-yl}-N-methylbenzamide] | 508 |
| CN1CCN(c2cc(-c3ccc4c(c3)CN(C(=O)Nc3cccc(Cl)c3)CC4)nc(N)n2)CC1 [Example 20, 7-[2-Amino-6-(4-methylpiperazin-1-yl)pyrimidin-4-yl]-N-(3-chlorophenyl)-3,4-dihydroisoquinoline-2(1H)-carboxamide] | 19.6 |
| C[C@@H](NC(=O)c1ccc2c(N3CCN(C)CC3)nc(N)nc2c1)c1ccc2ccccc2c1 [Example 21, (R)-2-Amino-4-(4-methylpiperazin-1-yl)-N-[1-(naphthalen-2-yl)ethyl]quinazoline-7-carboxamide] | 105 |
| C[C@H](NC(=O)c1ccc2c(N3CCN(C)CC3)nc(N)nc2c1)c1ccc2ccccc2c1 [Example 22, (S)-2-Amino-4-(4-methylpiperazin-1-yl)-N-(1-(naphthalen-2-yl)ethyl)quinazoline-7-carboxamide] | 128 |
| CN1CCN(c2nc(N)nc3cc(C(=O)NC(C)(C)c4ccccc4)ccc23)CC1 [Example 23, 2-Amino-N-(1-methyl-1-phenylethyl)-4-(4-methylpiperazin-1-yl)quinazoline-7-carboxamide] | 384 |
| CC(NC(=O)c1ccc2c(N3CCN(C)CC3)nc(N)nc2c1)c1ccccc1 (centres unmarked) [Example 24, 2-Amino-4-(4-methylpiperazin-1-yl)-N-(1-phenylethyl)quinazoline-7-carboxamide] | 565 |
